Test results: US20100311694A1, “Set of Geldanamycin Derivatives and Their Preparation Methods” (Institute of Medicinal Biotechnology, Chinese Academy of …, priority 2008, published 2010)

Tests used:
HBV = experiment: Anti-HBV activity (HBV DNA in cell lysate, spot hybridization); format: cell-based; settings: HBV DNA content of the cells, reagent solution changed every 4 days
Procedure: Test Procedure for Anti-HBV Activity
Using cell culture method, the preparation of the cells to be tested (100,000 cell's/mL) is inoculated into cell culture plate in 100 μl each well and the cells are cultured 24 h at 37° C. in 5% CO2. Tests are carried out when the cells grow into a monolayer. The target compounds as well as the controls are prepared into a series of solutions of appropriate concentrations using the culture medium and are added into 96 well culture plate respectively in 4 wells per one concentration. Then the reagent solution in each well is changed into the fresh reagent solution with the same concentration every 4 days. A cell control without reagent treatment is simultaneously is set up. The observation index is based upon the pathological changes of the cells by observing the degrees of the pathological changes of the cells under microscope every 8 days. […] Cell control without drug treatment is simultaneously is set up. The reagent solution or control medium in each well is changed into the fresh reagent solution or fresh medium respectively every 4 days. After cytolysis of the cells, HBV DNA is extracted from the cell lysis solution according to the molecular cloning technical procedure. The spots of different samples are hybridized and the A values of different hybridized spots are measured using autoradiograghic technique. The HBV DNA contents in the cell control as well as in the drug treated samples are calculated using the regression equations obtained from the standard curves to obtain half effective concentration values, the results are shown in Table 1.

HIV-1 = experiment: Anti HIV-1 activity (HIV-1 P24 antigen in cell cultures); format: cell-based; settings: 4 days after addition of the reagents
Procedure: Test Procedure of Anti HIV-1 Activity
8 reagent solutions of different diluted concentrations and positive control solutions are added into cell cultures in 96 well plate respectively. The sample of each diluted solutions is made duplicately and a control cell sample is also is set up. 100 μl of cell sample at a concentration of 2×10^5cells/ml is inoculated into the wells containing reagent in the plate. The cells samples are cultured in a saturated humidity culture chamber (at a 5% CO2 atmosphere) at 37° C. The pathological changes of cells are observed daily.

Molecule	Activity of HBV inhibition IC50 (HBV) [µg/mL]	Activity of HIV inhibition IC50 (HIV-1) [µg/mL]
COC1C=CC=C(C)C(=O)NC2=CC(=O)C(NCC3OCCO3)=C(CC(C)CC(OC)C(O)C(C)C=C(C)C1OC(N)=O)C2=O (centres unmarked) [GM-W29]	6.4	0.67
CO[C@H]1/C=C/C=C(\C)C(=O)NC2=CC(=O)C(NC[C@H]3CCCO3)=C(C[C@H](C)C[C@H](OC)[C@H](O)[C@@H](C)/C=C(\C)[C@H]1OC(N)=O)C2=O [THFM(R)-GM, 2′R-17-tetrahydrofurfurylamino-17-demethoxy geldanamycin]	0.01	0.05
COC1C=CC=C(C)C(=O)NC2=CC(=O)C(NCCC3OCCO3)=C(CC(C)CC(OC)C(O)C(C)C=C(C)C1OC(N)=O)C2=O (centres unmarked) [GM-W28]	0.10	0.21
COc1ccc(C=CC(=O)NCCNC2=C3C[C@H](C)C[C@H](OC)[C@H](O)[C@@H](C)/C=C(\C)[C@@H](OC(N)=O)[C@@H](OC)/C=C/C=C(\C)C(=O)NC(=CC2=O)C3=O)cc1OC [GM-413, 17-(2′-(3″,4″-dimethylcaffeoyl amido)ethylamino)-17-demethoxy geldanamycin]	0.32	0.48
COC1C=CC=C(C)C(=O)NC2=CC(=O)C(NCc3ccccn3)=C(CC(C)CC(OC)C(O)C(C)C=C(C)C1OC(N)=O)C2=O (centres unmarked) [GM-W19]	3.4	28.90
CO[C@H]1/C=C\C=C(/C)C(=O)NC2=CC(=O)C(NC[C@@H]3CCCO3)=C(C[C@@H](C)C[C@H](OC)[C@H](O)[C@@H](C)/C=C(\C)[C@@H]1OC(N)=O)C2=O [THFM(S)-GM, 2′S-17-tetrahydrofurfurylamino-17-demethoxy geldanamycin]	0.032	0.06
COC1C=CC=C(C)C(=O)NC2=CC(=O)C(NCCCN3CCOCC3)=C(CC(C)CC(OC)C(O)C(C)C=C(C)C1OC(N)=O)C2=O (centres unmarked) [GM-W75]	0.1	1.21
COC1C=CC=C(C)C(=O)NC2=CC(=O)C(NC3CCc4ccccc43)=C(CC(C)CC(OC)C(O)C(C)C=C(C)C1OC(N)=O)C2=O (centres unmarked) [GM-W21]	10.4	58.97
CCN1CCC[C@H]1CNC1=C2C[C@H](C)C[C@H](OC)[C@H](O)[C@@H](C)/C=C(\C)[C@@H](OC(N)=O)[C@@H](OC)/C=C/C=C(\C)C(=O)NC(=CC1=O)C2=O [GM-206S, 17-(2″S-2″-(N-ethylpyrrolidinyl)-methylamino)-17-demethoxy geldanamycin]	0.064	0.01
COC1C=CC=C(C)C(=O)NC2=CC(=O)C(NC3CCN(Cc4ccccc4)CC3)=C(CC(C)CC(OC)C(O)C(C)C=C(C)C1OC(N)=O)C2=O (centres unmarked) [GM-ABPD, 17-(4′-benzyl-4′-azacyclohexylamino)-17-demethoxy geldanamycin]	0.32	<0.03
COC1C=CC=C(C)C(=O)NC2=CC(=O)C(NN3CCN(CCO)CC3)=C(CC(C)CC(OC)C(O)C(C)C=C(C)C1OC(N)=O)C2=O (centres unmarked) [GM-W64]	8.6	3.75
CO[C@H]1/C=C/C=C(\C)C(=O)NC2=CC(=O)C(NCCc3cccs3)=C(C[C@H](C)C[C@H](OC)[C@H](O)[C@@H](C)/C=C(\C)[C@H]1OC(N)=O)C2=O [GM-221, 17-(2′-thienylethylamino)-17-demethoxy geldanamycin]	–	0.06
COC1C=CC=C(C)C(=O)NC2=CC(=O)C(NCCCN3CCCC3)=C(CC(C)CC(OC)C(O)C(C)C=C(C)C1OC(N)=O)C2=O (centres unmarked) [GM-W76]	0.01	0.24
COC1C=CC=C(C)C(=O)NC2=CC(=O)C(NCCC3CC(CC(=O)OC(C)(C)C)OC(C)(C)O3)=C(CC(C)CC(OC)C(O)C(C)C=C(C)C1OC(N)=O)C2=O (centres unmarked) [GM-W79]	3.2	1.47
COC1C=CC=C(C)C(=O)NC2=CC(=O)C(NCCC3CCN(Cc4ccccc4)CC3)=C(CC(C)CC(OC)C(O)C(C)C=C(C)C1OC(N)=O)C2=O (centres unmarked) [GM-W27]	3.9	13.81
COC1C=CC=C(C)C(=O)NC2=CC(=O)C(NN3CCCCC3)=C(CC(C)CC(OC)C(O)C(C)C=C(C)C1OC(N)=O)C2=O (centres unmarked) [GM-W72]	3.2	6.45
COC1C=CC=C(C)C(=O)NC2=CC(=O)C(NCC3CCCNC3)=C(CC(C)CC(OC)C(O)C(C)C=C(C)C1OC(N)=O)C2=O (centres unmarked) [GM-W23]	0.32	0.46

Molecule	Activity of HBV inhibition IC50 (HBV) [µg/mL]	Activity of HIV inhibition IC50 (HIV-1) [µg/mL]
CCOC(=O)N1CCC(NC2=C3CC(C)CC(OC)C(O)C(C)C=C(C)C(OC(N)=O)C(OC)C=CC=C(C)C(=O)NC(=CC2=O)C3=O)CC1 (centres unmarked) [GM-W80]	1.1	0.97
17-diethyloxy phosphoryl methylene amino-17-demethoxy geldanamycin [GM-GP]	3.24	1.36
CO[C@H]1/C=C/C=C(\C)C(=O)NC2=CC(=O)C(NCCCN3CCCC3=O)=C(C[C@H](C)C[C@H](OC)[C@H](O)[C@@H](C)/C=C(\C)[C@H]1OC(N)=O)C2=O [GM-226, 17-(3′-(2″-pyrrolidonyl)propylamino)-17-demethoxy geldanamycin]	1.6	>0.14
COC1C=CC=C(C)C(=O)NC2=CC(=O)C(NCCCN(C)c3ccccc3)=C(CC(C)CC(OC)C(O)C(C)C=C(C)C1OC(N)=O)C2=O (centres unmarked) [GM-W45]	0.32	<1.67
COC1C=CC=C(C)C(=O)NC2=CC(=O)C(Nc3cnc(C)c(C)n3)=C(CC(C)CC(OC)C(O)C(C)C=C(C)C1OC(N)=O)C2=O (centres unmarked) [GM-W57]	8.0	13.76
CO[C@H]1/C=C/C=C(\C)C(=O)NC2=C(NC[C@H]3CCCO3)C(=O)C(NC[C@H]3CCCO3)=C(C[C@H](C)C[C@H](OC)[C@H](O)[C@@H](C)/C=C(\C)[C@H]1OC(N)=O)C2=O [THFM-II, 17,19-di-(R)-tetrahydrofurfuryl amino-17-demethoxy geldanamycin]	0.013	>22.2
COC1C=CC=C(C)C(=O)NC2=CC(=O)C(NCC3CCNCC3)=C(CC(C)CC(OC)C(O)C(C)C=C(C)C1OC(N)=O)C2=O (centres unmarked) [GM-AMPP]	8.0	0.06
COC1C=CC=C(C)C(=O)NC2=CC(=O)C(NCCc3ccc(N)cc3)=C(CC(C)CC(OC)C(O)C(C)C=C(C)C1OC(N)=O)C2=O (centres unmarked) [GM-W10]	6.4	40.71
COC1C=CC=C(C)C(=O)NC2=CC(=O)C(NCCS(=O)(=O)O)=C(CC(C)CC(OC)C(O)C(C)C=C(C)C1OC(N)=O)C2=O (centres unmarked) [GM-W5]	6.4	10.26
COC1C=CC=C(C)C(=O)NC2=CC(=O)C(NCCOCCO)=C(CC(C)CC(OC)C(O)C(C)C=C(C)C1OC(N)=O)C2=O (centres unmarked) [GM-W25]	0.32	0.43
COC1C=CC=C(C)C(=O)NC2=CC(=O)C(NCc3cc(O)co3)=C(CC(C)CC(OC)C(O)C(C)C=C(C)C1OC(N)=O)C2=O (centres unmarked) [GM-W53]	0.46	0.37
COC1C=CC=C(C)C(=O)NC2=CC(=O)C(NNC(=O)c3ccco3)=C(CC(C)CC(OC)C(O)C(C)C=C(C)C1OC(N)=O)C2=O (centres unmarked) [GM-W83]	3.2	3.56
COC1C=CC=C(C)C(=O)NC2=CC(=O)C(NCCO)=C(CC(C)CC(OC)C(O)C(C)C=C(C)C1OC(N)=O)C2=O (centres unmarked) [GM-W42]	0.01	0.091
COC1C=CC=C(C)C(=O)NC2=CC(=O)C(NCc3ccc4c(c3)OCO4)=C(CC(C)CC(OC)C(O)C(C)C=C(C)C1OC(N)=O)C2=O (centres unmarked) [GM-217, 17-(3′,4′-(Methylenedioxy)benzylamino)-17-demethoxygeldanamycin]	–	0.16
CO[C@H]1/C=C/C=C(\C)C(=O)NC2=CC(=O)C(NCCc3ccc(S(N)(=O)=O)cc3)=C(C[C@H](C)C[C@H](OC)[C@H](O)[C@@H](C)/C=C(\C)[C@H]1OC(N)=O)C2=O [GM-208, 17-(4″-aminosulfonyl)phenylethylamino-17-demethoxy geldanamycin]	–	>0.82
17-(trans-4′-hydroxyl cyclohexylamino)-17-demethoxy geldanamycin [GM-223]	–	0.10
